Tests used:
[1] = system: advanced hematologic malignancies with an IDH2 mutation; assay: Phase 1/2 study of orally administered COMPOUND A: clinical activity (overall response rate); type: in vivo, human; conditions: 44 subjects treated at 100 mg QD; preliminary efficacy data
Source text: This was a Phase 1/2, multicenter, open-label, 3-part (Phase 1 dose escalation, Phase 1 Part 1 Expansion, and Phase 2), safety, PK/PD, and clinical activity evaluation of orally administered COMPOUND A in subjects with advanced hematologic malignancies, for example MDS, that harbor an IDH2 mutation. The study included a dose escalation phase to determine MTD/MAD and/or RP2D, an expansion phase (Part 1) to further evaluate the safety, tolerability, and clinical activity of COMPOUND A, and a Phase 2 to assess the clinical efficacy of COMPOUND A at the RP2D and to further evaluate safety in subjects with refractory and relapsed AML carrying an IDH2 mutation.
Subjects in the dose escalation phase and Part 1 Expansion had the extent of their disease assessed, including bone marrow biopsies and/or aspirates and peripheral blood, at screening, on C1D15, C2D1, and C3D1, every 28 days (peripheral blood only) or every 56 days (bone marrow biopsies and/or aspirates and peripheral blood) thereafter while on study drug treatment, independent of dose delays and/or dose interruptions, and/or at any time when progression of disease was suspected. Response to treatment and treatment decisions in all subjects was determined by the Investigators based on modified International Working Group (IWG) response criteria or other appropriate response criteria for the malignancy under study. […]

[2] = system: 2-HG plasma levels; assay: Phase 1/2 study: pharmacodynamic response, 2-HG plasma levels; type: in vivo, human
Method: Dose Escalation Phase: The dose escalation phase utilized a standard “3+3” design. During the dose escalation phase, consented eligible subjects with relapsed or refractory acute myelogenous leukemia (AML), untreated AML≧60 years of age who were not candidates for standard therapy, or myelodysplastic syndrome with refractory anemia with excess blasts were enrolled into sequential cohorts of increasing doses of COMPOUND A not to exceed 650 mg QD dose. Each dose cohort enrolled a minimum of 3 subjects. The first 3 subjects enrolled in each dosing cohort during the dose escalation portion of the study received a single dose of study drug on Day −3 (i.e., 3 days prior to the start of daily dosing) and underwent safety and PK/PD assessments over 72 hours to evaluate drug concentrations and 2-HG and α-KG levels. The next dose of study drug was on Cycle 1 Day 1 (C1D1) at which time daily dosing began. The initial dosing schedule was twice daily (approximately every 12 hours). Based on the emerging data, a once daily dosing schedule also has been implemented. […]
Subjects in the dose escalation phase and Part 1 Expansion also underwent PK/PD assessments over a 10-hour period on C1D15, C2D1, and C4D1. […] Available bone marrow biopsy samples also were assessed for 2-HG and α-KG levels. […]

[3] = system: subjects with advanced hematologic malignancies with an IDH2 mutation; assay: Phase 1/2 study: safety profile (AEs, NCI CTCAE); type: in vivo, human; conditions: 100 mg
Source text: (§1) A DLT was defined as outlined below.
Monitoring of AEs, including determination of DLTs, serious adverse events (SAEs), and AEs leading to discontinuation; safety laboratory parameters; physical examination findings; vital signs; 12-lead ECGs; LVEF; and ECOG PS.

[4] = system: MDS and mIDH2; assay: Example 2: clinical response to COMPOUND A monotherapy (IWG 2006 MDS criteria), survival; type: in vivo, human
Source text: (§2) Cheson et al., Blood. 108:419-425 (2006). […] Overall survival (OS) was estimated using Kaplan-Meier methods.

[5] = system: patients with MDS and mIDH2; assay: Example 2: safety, treatment-emergent adverse events; type: in vivo, human
Source text: as §1, §2

[6] = system: MDS and mIDH2; assay: Example 3: clinical response to COMPOUND A monotherapy (IWG 2006 MDS criteria), survival; type: in vivo, human
Source text: as §2

[7] = system: MDS and mIDH2 with co-occurring gene mutations; assay: Example 3: association of co-occurring somatic mutations (FoundationOne Heme panel) with response to COMPOUND A; type: in vivo, human
Method: as §2
Analysis of MDS patients for association of gene mutations found with overall response rate (ORR) was performed on patients who received COMPOUND A and where a clinical response was captured for at least one time point during treatment (Table 12). An average of 2.6 genes were mutated in each patient beyond IDH2.

[8] = system: patients with MDS and mIDH2; assay: Example 3: safety, treatment-emergent adverse events
Source text: Patients were relapsed or refractory to prior MDS therapy (Tx) or were not candidates for standard therapies. […] Evaluable patients required a response assessment at Cycle 2 Day 1 or later, or discontinued before assessment. Overall survival (OS) was estimated using Kaplan-Meier methods. Next-generation sequencing identified pre-existing co-occurring genomic alterations using the FoundationOne Heme test on purified mononuclear cells from BM or PB, to assess relationships between co-mutational status and clinical response.

[9] = 10 evaluable pts with prior HMA Tx
[10] = evaluable pts had ≧5% BM blasts at baseline
[11] = sustained ≧4 weeks, from beginning COMPOUND A Tx
[12] = 13 patients with prior HMA therapy
[13] = IWG 2006, denominators reflect eligibility
[14] = investigator-assessed, evaluable patients had ≧5% bone marrow blasts at baseline
[15] = programmatically adjudicated per IWG 2006 criteria, denominators reflect eligibility

CC(C)(O)CNc1nc(Nc2ccnc(C(F)(F)F)c2)nc(-c2cccc(C(F)(F)F)n2)n1.CS(=O)(=O)O [COMPOUND A, mesylate salt of 2-methyl-1-[(4-[6-(trifluoromethyl)pyridin-2-yl]-6-{[2-(trifluoromethyl)pyridin-4-yl]amino}-1,3,5-triazin-2-yl)amino]propan-2-ol]
overall response rate [1]: 36.4%
inhibition of 2-HG plasma levels ([2]; most subjects with R140Q mutation, all doses, sustained reduction by Day 1 of Cycle 2): up to 98%
exposure and inhibition of 2-HG versus dose ([2]; subjects with R172K mutation): Increasing dose was associated with higher exposure and inhibition of 2-HG
safety profile, including ≧Grade 3 [3]: consistent with that of lower doses
responses in pts with no prior MDS Tx ([4]; 4 pts with no prior MDS Tx): a PR and mCR (1 each)
pts with a response among pts who had received prior HMA Tx [4, 9]: 5 pts
response rate among pts who had received prior HMA Tx [4, 9]: 50%
Best response Hematologic Improvement ([4]; MDS pts N=16): (27) %
Best response Hematologic Improvement, pts/evaluable ([4]; MDS pts N=16): 4/15
Overall response rate (CR + PR + mCR + HI), responders/evaluable ([4]; MDS pts N=16, oral 60-300 mg daily, 28-day cycles): 8/15
Best response Complete Remission [4, 10]: (11) %
Best response Marrow CR [4, 10]: (22) %
Best response Marrow CR, pts/evaluable [4, 10]: 2/9
Best response Partial Remission [4, 10]: (11) %
Best response Partial Remission, pts/evaluable [4, 10]: 1/9
Median OS ([4]; median follow-up of 4.7 months, Kaplan-Meier): not reached
Median time to CR, PR, or mCR [4, 11]: 24 days
time to CR, PR, or mCR, range [4, 11]: 17 to 87 days
Median time to HI ([4]; sustained ≧8 weeks): 11 days
time to HI, range ([4]; sustained ≧8 weeks): 11 to 60 days
Grade 3-4 TEAE hyperbilirubinemia (unconjugated) ([5]; MDS pts N=16): 5 n
Grade 3-4 TEAE hypokalemia ([5]; MDS pts N=16): 3 n
Grade 3-4 TEAE pneumonia ([5]; MDS pts N=16): 4 n
Grade 3-4 TEAE thrombocytopenia ([5]; MDS pts N=16): 3 n
Grade 3-4 treatment-emergent AEs (TEAEs) ([5]; MDS pts N=16): 81%
Grade 3-4 treatment-emergent AEs (TEAEs), pts ([5]; MDS pts N=16): 13 pts
grade 3-4 drug-related TEAE ([5]; MDS pts N=16): 44%
grade 3-4 drug-related TEAE, pts ([5]; MDS pts N=16): Seven
tolerability of daily oral monotherapy ([5]; MDS pts with mIDH2): well tolerated
patients with a response among patients who had received prior HMA therapy [6, 12]: 7 patients
response rate among patients who had received prior HMA therapy [6, 12]: 54%
HI-E [6, 13]: 20%
HI-E, patients/eligible [6, 13]: 3/15
HI-N [6, 13]: 40%
HI-N, patients/eligible [6, 13]: 4/10
HI-P [6, 13]: 33%
HI-P, patients/eligible [6, 13]: 4/12
Overall response rate (CR + PR + mCR + HI) ([6]; MDS patients N=17): 59%
Overall response rate (CR + PR + mCR + HI), responders/evaluable ([6]; MDS patients N=17): 10/17
Best response Complete Remission [6, 14]: 9%
Best response Complete Remission, patients/evaluable [6, 14]: 1/11
Best response Marrow CR [6, 14]: 27%
Best response Marrow CR, patients/evaluable [6, 14]: 3/11
Best response Partial Remission [6, 14]: 9%
Best response Partial Remission, patients/evaluable [6, 14]: 1/11
median overall survival ([6]; median follow-up of 7.5 months): not reached
patients with bilineage improvement ([6]; of patients who attained HI): 2 patients
patients with trilineage improvement ([6]; of patients who attained HI): 2 patients
Any Hematologic Improvement (HI) [6, 15]: 29%
Any Hematologic Improvement (HI), patients/eligible [6, 15]: 5/17
median time to response ([6]; treated MDS patients): 21 days
time to response, range ([6]; treated MDS patients): 10 to 87 days
ORR OR ([7]; ASXL1 mutation): 2.500
ORR OR ([7]; KRAS mutation): 0.214
clinical responses (≧HI) by co-occurring mutation ([7]; MDS patients with mIDH2): observed in the presence of all mutations except TP53, U2AF1, SETBP1, TCF3, STAG2, NRAS, JAK2 and BRAF
mutations enriched in MDS patients with clinical response (≧HI) ([7]; MDS patients with mIDH2): patients with mutations in SRSF2, MPL and ASXL1 are enriched
ORR OR ([7]; MPL mutation): 4.231
ORR OR ([7]; SETBP1 mutation): 0.082
ORR OR ([7]; SRSF2 mutation): 12.000
ORR OR ([7]; TP53 mutation): 0.082
ORR OR ([7]; U2AF1 mutation): 0.082
ORR ([7]; patients with ASXL1 mutation): 0.714
ORR ([7]; patients with KRAS mutation): 0.333
ORR ([7]; patients with MPL mutation): 1.000
ORR ([7]; patients with SETBP1 mutation): 0.000
ORR ([7]; patients with SRSF2 mutation): 0.857
ORR ([7]; patients with TP53 mutation): 0.000
ORR ([7]; patients with U2AF1 mutation): 0.000
Grade 3-4 TEAE Anemia ([8]; MDS patients n=17): 18%
Grade 3-4 TEAE Dyspnea ([8]; MDS patients n=17): 12%
Grade 3-4 TEAE Tumor lysis syndrome ([8]; MDS patients n=17): 12%
Grade 3-4 TEAE hypokalemia ([8]; MDS patients n=17): 18%
Grade 3-4 TEAE pneumonia ([8]; MDS patients n=17): 24%
Grade 3-4 TEAE thrombocytopenia ([8]; MDS patients n=17): 24%
Grade 3-4 treatment-emergent AEs (TEAEs) ([8]; MDS patients n=17): 82%
Grade 3-4 treatment-emergent AEs (TEAEs), patients ([8]; MDS patients n=17): 14 patients
grade 3-4 drug-related TEAE, patients ([8]; MDS patients n=17): Six
treatment related deaths ([8]; MDS patients n=17): No treatment related deaths were reported
COMPOUND A-related serious TEAEs, patients ([8]; n=17, tumor lysis syndrome [2], blood bilirubin increased, transaminitis): 4 patients
Grade 3-4 TEAE Hyperbilirubinemia ([8]; n=17, unconjugated, includes hyperbilirubinemia and blood bilirubin increased): 30%
